Results: US20260242391A1 (priority 2023, published 2026)

Legend:
HL-60 = HL-60 differentiation potency; type: cell-based; conditions: Homo sapiens
in vitro = conditions: human

Which results are given for `CNC(=O)N1CCN([C@@H]2O[C@@H]3O[C@@]4(C)CC[C@H]5[C@H](C)CC[C@@H]([C@H]2C)[C@@]35OO4)CC1` [Compound 67, N-methyl-4-((3R,5aS,6R,8aS, 9R,10R,12R, 12aR)-3,6,9-trimethyldeca-hydro-12H-3,12-epoxy[1,2]dioxepino[4,3-i]isochromen-10-yl)piperazine-1-carboxamide]?
EC50 (HL-60): > 20000 nM; IC50 (in vitro): > 20000 nM

Which EC50 (HL-60) does the source give for `C[C@H]1[C@@H](CCN2CC(C(=O)O)C2)O[C@@H]2O[C@@]3(C)CC[C@H]4[C@H](C)CC[C@@H]1[C@@]24OO3` [Compound 68, 1-(2-((3R,5aS,6R,8aS, 9R,10R,12R, 12aR)-3,6,9-trimethyldeca-hydro-12H-3,12-epoxy[1,2]dioxepino[4,3-i]isochromen-10-yl)ethyl) azetidine-3-carboxylic acid] here?
Its EC50 is > 20000 nM.

And the IC50 (in vitro)?
The IC50 was > 20000 nM.

Which results are given for `C[C@H]1[C@H](N2CC[C@@H](C(=O)O)C2)O[C@@H]2O[C@@]3(C)CC[C@H]4[C@H](C)CC[C@@H]1[C@@]24OO3` [Compound 69, (R)-1-((3R,5aS,6R,8aS, 9R,10R,12R, 12aR)-3,6,9-trimethyldeca-hydro-12H-3,12-epoxy[1,2]dioxepino[4,3-i]isochromen-10-yl)pyrrolidine-3-carboxylic acid]?
EC50 (HL-60): > 20000 nM; IC50 (in vitro): > 20000 nM

For `COC(=O)[C@@H]1CCN(CC[C@H]2O[C@@H]3O[C@@]4(C)CC[C@H]5[C@H](C)CC[C@@H]([C@H]2C)[C@@]35OO4)C1` [Compound 70, methyl (R)-1-(2-((3R,5aS,6R,8aS, 9R,10R,12R, 12aR)-3,6,9-trimethyldeca-hydro-12H-3,12-epoxy[1,2]dioxepino[4,3-i]isochromen-10-yl)ethyl) pyrrolidine-3-carboxylate], which EC50 (HL-60) is on record?
The EC50 was > 20000 nM.

What about the IC50 (in vitro) of the same compound?
The IC50 was > 20000 nM.

With `C[C@H]1[C@@H](Oc2ccc(CCCCC(=O)O)cc2)O[C@@H]2O[C@@]3(C)CC[C@H]4[C@H](C)CC[C@@H]1[C@@]24OO3` [Compound 72, 5-(4-(((3R,5aS, 6R,8aS,9R,10S, 12R,12aR)-3,6,9-trimethyldeca-hydro-12H-3,12-epoxy[1,2]dioxepino[4,3-i]isochromen-10-yl)oxy)phenyl) pentanoic acid] as the compound, how does the EC50 (HL-60) read?
The EC50 was 113 nM.

And the IC50 (in vitro)?
The IC50 was 777 nM.

With `C[C@H]1[C@@H](Oc2ccc(-c3nn[nH]n3)cc2)O[C@@H]2O[C@@]3(C)CC[C@H]4[C@H](C)CC[C@@H]1[C@@]24OO3` [Compound 73, 5-(4-(((3R,5aS,6R, 8aS,9R,10S,12R, 12aR)-3,6,9-trimethyldeca-hydro-12H-3,12-epoxy[1,2]dioxepino[4,3-i]isochromen-10-yl)oxy)phenyl)-2H-tetrazole] as the compound, how does the EC50 (HL-60) read?
The EC50 was 34.6 nM.

And the IC50 (in vitro)?
Its IC50 is 31.9 nM.

With `Cc1cc(C(=O)O)ccc1CO[C@H]1O[C@@H]2O[C@@]3(C)CC[C@H]4[C@H](C)CC[C@@H]([C@H]1C)[C@@]24OO3` [Compound 74, 3-methyl-4-((((3R,5aS,6R,8aS, 9R,10S,12R, 12aR)-3,6,9-trimethyldeca-hydro-12H-3,12-epoxy[1,2]dioxepino[4,3-i]isochromen-10-yl)oxy)methyl) benzoic acid] as the compound, how does the EC50 (HL-60) read?
The EC50 was 865 nM.

What about the IC50 (in vitro) of the same compound?
Its IC50 is > 20000 nM.

What does the source list for `C[C@H]1[C@@H](OCC23CCC(C(=O)O)(CC2)CC3)O[C@@H]2O[C@@]3(C)CC[C@H]4[C@H](C)CC[C@@H]1[C@@]24OO3` [Compound 75, 4-((((3R,5aS,6R, 8aS,9R,10S,12R, 12aR)-3,6,9-trimethyldeca-hydro-12H-3,12-epoxy[1,2]dioxepino[4,3-i]isochromen-10-yl)oxy)methyl) bicyclo[2.2.2] octane-1-carboxylic acid]?
EC50 (HL-60): 1180 nM; IC50 (in vitro): > 20000 nM

For `C[C@H]1[C@@H](OCCS(C)(=O)=O)O[C@@H]2O[C@@]3(C)CC[C@H]4[C@H](C)CC[C@@H]1[C@@]24OO3` [Compound 90, (3R,5aS,6R,8aS, 9R,10S,12R, 12aR)-3,6,9-trimethyl-10-(2-(methylsulfonyl)ethoxy)deca-hydro-12H-3,12-epoxy[1,2] dioxepino[4,3-i] isochromene], which EC50 (HL-60) is on record?
Its EC50 is > 20000 nM.

What about the IC50 (in vitro) of the same compound?
Its IC50 is > 20000 nM.

What does the source list for `C[C@H]1[C@H](OCc2cccc(C(=O)O)c2)O[C@@H]2O[C@@]3(C)CC[C@H]4[C@H](C)CC[C@@H]1[C@@]24OO3` [Compound 91, 3-((((3R,5aS,6R,8aS, 9R,10R,12R, 12aR)-3,6,9-trimethyldeca-hydro-12H-3,12-epoxy[1,2]dioxepino[4,3-i]isochromen-10-yl)oxy)methyl) benzoic acid]?
EC50 (HL-60): 17500 nM; IC50 (in vitro): > 20000 nM

Which EC50 (HL-60) does the source give for `C[C@H]1[C@H](OCc2ccc(C(=O)O)c(Cl)c2)O[C@@H]2O[C@@]3(C)CC[C@H]4[C@H](C)CC[C@@H]1[C@@]24OO3` [Compound 92, 2-chloro-4-((((3R,5aS,6R, 8aS,9R,10R,12R, 12aR)-3,6,9-trimethyldeca-hydro-12H-3,12-epoxy[1,2]dioxepino[4,3-i]isochromen-10-yl)oxy)methyl) benzoic acid] here?
The EC50 was > 20000 nM.

What about the IC50 (in vitro) of the same compound?
Its IC50 is > 20000 nM.

For `C[C@H]1[C@@H](OC(=O)CCC(O)c2ccc(Cl)cc2)O[C@@H]2O[C@@]3(C)CC[C@H]4[C@H](C)CC[C@@H]1[C@@]24OO3` (stereo partly drawn) [Compound 93, (3R,5aS,6R,8aS, 9R,10R,12R, 12aR)-3,6,9-trimethyldeca-hydro-12H-3,12-epoxy[1,2] dioxepino[4,3-i] isochromen-10-yl 4-(4-chlorophenyl)-4-hydroxybutanoate], which EC50 (HL-60) is on record?
Its EC50 is 78.6 nM.

And the IC50 (in vitro)?
The IC50 was 87.7 nM.

Which EC50 (HL-60) does the source give for `C[C@H]1[C@H](NCCc2ccccc2)O[C@@H]2O[C@@]3(C)CC[C@H]4[C@H](C)CC[C@@H]1[C@@]24OO3` [Compound 94, (3R,5aS,6R,8aS, 9R,10R,12R, 12aR)-3,6,9-trimethyl-N-phenethyldeca-hydro-12H-3,12-epoxy[1,2] dioxepino[4,3-i] isochromen-10-amine] here?
The EC50 was 257 nM.

And the IC50 (in vitro)?
The IC50 was 315 nM.

For `CNC(=O)CCN[C@@H]1O[C@@H]2O[C@@]3(C)CC[C@H]4[C@H](C)CC[C@@H]([C@H]1C)[C@@]24OO3` [Compound 95, N-methyl-3-(((3R,5aS,6R,8aS, 9R,10R,12R, 12aR)-3,6,9-trimethyldeca-hydro-12H-3,12-epoxy[1,2]dioxepino[4,3-i]isochromen-10-yl)amino) propanamide], which EC50 (HL-60) is on record?
The EC50 was 348 nM.

What about the IC50 (in vitro) of the same compound?
The IC50 was 352 nM.

For `C[C@H]1[C@H](NCCC(N)=O)O[C@@H]2O[C@@]3(C)CC[C@H]4[C@H](C)CC[C@@H]1[C@@]24OO3` [Compound 96, 3-(((3R,5aS,6R,8aS, 9R,10R,12R, 12aR)-3,6,9-trimethyldeca-hydro-12H-3,12-epoxy[1,2]dioxepino[4,3-i]isochromen-10-yl)amino) propanamide], which EC50 (HL-60) is on record?
Its EC50 is 1700 nM.

And the IC50 (in vitro)?
Its IC50 is 1980 nM.

Which EC50 (HL-60) does the source give for `CNS(=O)(=O)CCN[C@@H]1O[C@@H]2O[C@@]3(C)CC[C@H]4[C@H](C)CC[C@@H]([C@H]1C)[C@@]24OO3` [Compound 97, N-methyl-2-(((3R,5aS,6R,8aS, 9R,10R,12R, 12aR)-3,6,9-trimethyldeca-hydro-12H-3,12-epoxy[1,2]dioxepino[4,3-i]isochromen-10-yl)amino)ethane-1-sulfonamide] here?
Its EC50 is 2340 nM.

What about the IC50 (in vitro) of the same compound?
Its IC50 is 2080 nM.

With `C[C@H]1[C@H](NCc2ccncc2)O[C@@H]2O[C@@]3(C)CC[C@H]4[C@H](C)CC[C@@H]1[C@@]24OO3` [Compound 98, (3R,5aS,6R,8aS, 9R,10R,12R, 12aR)-3,6,9-trimethyl-N-(pyridin-4-ylmethyl)deca-hydro-12H-3,12-epoxy[1,2] dioxepino[4,3-i] isochromen-10-amine] as the compound, how does the EC50 (HL-60) read?
Its EC50 is > 20000 nM.

What about the IC50 (in vitro) of the same compound?
The IC50 was > 20000 nM.

For `C[C@H]1[C@H](NCCS(C)(=O)=O)O[C@@H]2O[C@@]3(C)CC[C@H]4[C@H](C)CC[C@@H]1[C@@]24OO3` [Compound 99, (3R,5aS,6R,8aS, 9R,10R,12R, 12aR)-3,6,9-trimethyl-N-(2-(methylsulfonyl)ethyl)decahydro-12H-3,12-epoxy [1,2]dioxepino [4,3-i]isochromen-10-amine], which EC50 (HL-60) is on record?
The EC50 was 660 nM.

And the IC50 (in vitro)?
The IC50 was 743 nM.

With `C[C@H]1[C@H](NCCCS(C)(=O)=O)O[C@@H]2O[C@@]3(C)CC[C@H]4[C@H](C)CC[C@@H]1[C@@]24OO3` [Compound 100, (3R,5aS,6R,8aS, 9R,10R,12R, 12aR)-3,6,9-trimethyl-N-(3-(methylsulfonyl)propyl)deca-hydro-12H-3,12-epoxy[1,2] dioxepino[4,3-i] isochromen-10-amine] as the compound, how does the EC50 (HL-60) read?
Its EC50 is 498 nM.

What about the IC50 (in vitro) of the same compound?
The IC50 was 535 nM.

For `C[C@H]1[C@H](NCc2ccccc2)O[C@@H]2O[C@@]3(C)CC[C@H]4[C@H](C)CC[C@@H]1[C@@]24OO3` [Compound 101, (3R,5aS,6R,8aS, 9R,10R,12R, 12aR)-N-benzyl-3,6,9-trimethyldeca-hydro-12H-3,12-epoxy[1,2] dioxepino[4,3-i] isochromen-10-amine], which EC50 (HL-60) is on record?
The EC50 was 835 nM.

And the IC50 (in vitro)?
Its IC50 is 1320 nM.

With `C[C@H]1[C@H](N(C)Cc2ccc(C(=O)O)cc2)O[C@@H]2O[C@@]3(C)CC[C@H]4[C@H](C)CC[C@@H]1[C@@]24OO3` [Compound 102, 4-((methyl((3R, 5aS,6R,8aS,9R, 10R,12R,12aR)-3,6,9-trimethyldeca-hydro-12H-3,12-epoxy[1,2]dioxepino[4,3-i]isochromen-10-yl)amino)methyl) benzoic acid] as the compound, how does the EC50 (HL-60) read?
Its EC50 is > 20000 nM.

And the IC50 (in vitro)?
The IC50 was > 20000 nM.

Which EC50 (HL-60) does the source give for `C[C@H]1[C@H](N(C)C23CC(C(=O)O)(C2)C3)O[C@@H]2O[C@@]3(C)CC[C@H]4[C@H](C)CC[C@@H]1[C@@]24OO3` [Compound 103, 3-(methyl((3R,5aS, 6R,8aS,9R,10R, 12R,12aR)-3,6,9-trimethyldeca-hydro-12H-3,12-epoxy[1,2]dioxepino[4,3-i]isochromen-10-yl)amino)bicyclo [1.1.1]pentane-1-carboxylic acid] here?
The EC50 was > 20000 nM.

What about the IC50 (in vitro) of the same compound?
The IC50 was > 20000 nM.

With `C[C@H]1[C@@H](Oc2ccc(CC(=O)NC(C)(C)C)cc2)O[C@@H]2O[C@@]3(C)CC[C@H]4[C@H](C)CC[C@@H]1[C@@]24OO3` [Compound 104, N-(tert-butyl)-2-(4-(((3R,5aS,6R,8aS, 9R,10S,12R, 12aR)-3,6,9-trimethyldeca-hydro-12H-3,12-epoxy[1,2]dioxepino[4,3-i]isochromen-10-yl)oxy)phenyl) acetamide] as the compound, how does the EC50 (HL-60) read?
Its EC50 is 52.3 nM.

What about the IC50 (in vitro) of the same compound?
The IC50 was 160 nM.

For `C[C@H]1[C@H](OCC2CCC(F)(F)CC2)O[C@@H]2O[C@@]3(C)CC[C@H]4[C@H](C)CC[C@@H]1[C@@]24OO3` [Compound 105, (3R,5aS,6R,8aS, 9R,10R,12R, 12aR)-10-((4,4-difluorocyclo-hexyl)methoxy)-3,6,9-trimethyldeca-hydro-12H-3,12-epoxy[1,2] dioxepino[4,3-i] isochromene], which EC50 (HL-60) is on record?
The EC50 was 48.4 nM.

What about the IC50 (in vitro) of the same compound?
The IC50 was 200 nM.
